Laboratory results reported in US20260374754A1, “N-((ISOQUINOLIN-6-YL)METHYL)-1H-PYRAZOLE-4-CARBOXAMIDE DERIVATIVES AS PLASMA KALLIKREIN INHIBITORS FOR THE TREATMENT OF HEREDITARY ANGIODEMA” (Takeda Pharmaceutical Company Limited, priority 2022, published 2026).
Structures can show the parent of a compound that is named as a salt.

What follows are molecules tested against human activated kallikrein enzyme (Homo sapiens, UniProt P03952) (assay: Inhibition of human activated plasma kallikrein, fluorogenic PFR-AMC substrate, 500 pM enzyme format). Details: 500 pM activated kallikrein; 300 μM PFR-AMC; 30 min preincubation; 10 min room temperature; pH 7.5; read-out: Primary Dose Response Assay: Average EC50.
Chain of human activated kallikrein enzyme (P03952 391-638 limits assumed): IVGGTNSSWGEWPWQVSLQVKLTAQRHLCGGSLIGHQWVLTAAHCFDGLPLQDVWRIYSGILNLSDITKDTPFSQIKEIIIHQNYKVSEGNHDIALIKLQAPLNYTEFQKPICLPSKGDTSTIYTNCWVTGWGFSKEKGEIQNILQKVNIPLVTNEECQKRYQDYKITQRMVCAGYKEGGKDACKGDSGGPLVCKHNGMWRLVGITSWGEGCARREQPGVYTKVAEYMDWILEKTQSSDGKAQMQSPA
Chain of human activated kallikrein enzyme (P03952 20-390 partner limits assumed): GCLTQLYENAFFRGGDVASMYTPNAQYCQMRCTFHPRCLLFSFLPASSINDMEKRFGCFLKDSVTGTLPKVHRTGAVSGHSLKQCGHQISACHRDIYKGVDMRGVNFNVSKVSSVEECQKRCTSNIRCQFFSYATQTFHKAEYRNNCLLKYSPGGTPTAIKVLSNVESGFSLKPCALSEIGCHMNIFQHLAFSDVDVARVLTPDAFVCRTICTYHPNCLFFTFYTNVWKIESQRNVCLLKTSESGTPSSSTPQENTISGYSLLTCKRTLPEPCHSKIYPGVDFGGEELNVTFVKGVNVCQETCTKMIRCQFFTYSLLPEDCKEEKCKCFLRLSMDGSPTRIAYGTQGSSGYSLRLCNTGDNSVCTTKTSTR
Assay type: biochemical
Procedure, shortened: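 500 pM activated kallikrein preincubated 30 min at room temperature with inhibitors in pH 7.5 Tris/EDTA/NaCl buffer with PEG-400 and Triton X-100. Reaction started with 300 μM PFR-AMC, run 10 min at room temperature; AMC fluorescence read at ex 380/em 460 nm.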

EC50 [nM]	Compound
< 1	Cc1cc2c(N)nccc2c(C)c1CNc1cc(NC(C)c2ccc3ncc(Cl)cc3c2)ncn1 (stereo not drawn) [Example 310, N^4-((1-amino-5,7-dimethylisoquinolin-6-yl)methyl)-N^6-(1-(3-chloroquinolin-6-yl)ethyl)pyrimidine-4,6-diamine]
1 to 10	Cc1cnc2cc(CNc3cc(NCc4c(C)cc5c(N)nccc5c4C)ncn3)ccc2c1 [Example 311, N^4-((1-amino-5,7-dimethylisoquinolin-6-yl)methyl)-N^6-((3-methylquinolin-7-yl)methyl)pyrimidine-4,6-diamine]
< 1	Cc1cc2c(N)nccc2c(C)c1CNc1cc(NCc2ccc3ncc(C(F)(F)F)cc3c2)ncn1 [Example 312, N^4-((1-amino-5,7-dimethylisoquinolin-6-yl)methyl)-N^6-((3-(trifluoromethyl)quinolin-6-yl)methyl)pyrimidine-4,6-diamine]
1 to 10	Cc1cc2c(N)nccc2c(C)c1CNc1cc(NCc2cc3ccccc3cn2)ncn1 [Example 315, N^4-((1-amino-5,7-dimethylisoquinolin-6-yl)methyl)-N^6-(isoquinolin-3-ylmethyl)pyrimidine-4,6-diamine]
10 to 100	Cc1cc2c(N)nccc2c(C)c1CNc1cc(N(C)Cc2cnc3ccccc3c2)ncn1 [Example 316, N^4-((1-amino-5,7-dimethylisoquinolin-6-yl)methyl)-N^6-methyl-N^6-(quinolin-3-ylmethyl)pyrimidine-4,6-diamine]
1 to 10	Cc1cc2c(N)nccc2c(C)c1CNc1cc(NCc2cnc3ccccc3c2)ncn1 [Example 317, N^4-((1-amino-5,7-dimethylisoquinolin-6-yl)methyl)-N^6-(quinolin-3-ylmethyl)pyrimidine-4,6-diamine, formic acid salt]
100 to 1000	COc1ccc2cc(CN(C)c3cc(NCc4c(C)cc5c(N)nccc5c4C)ncn3)ccc2c1 [Example 318, N^4-((1-amino-5,7-dimethylisoquinolin-6-yl)methyl)-N^6_((6-methoxynaphthalen-2-yl)methyl)-N^6-methylpyrimidine-4,6-diamine]
100 to 1000	Cc1cc2c(N)nccc2c(C)c1CNc1cc(NCc2nc3ccccc3s2)ncn1 [Example 319, N^4-((1-amino-5,7-dimethylisoquinolin-6-yl)methyl)-N6-(benzo[d]thiazol-2-ylmethyl)pyrimidine-4,6-diamine]
1 to 10	Cc1cc2c(N)nccc2c(C)c1CNc1cc(NCc2ccc3cnccc3c2)ncn1 [Example 320, N^4-((1-amino-5,7-dimethylisoquinolin-6-yl)methyl)-N^6-(isoquinolin-6-ylmethyl)pyrimidine-4,6-diamine]
1 to 10	Cc1cc2c(N)nccc2c(C)c1CNc1cc(NCc2cn3ccccc3n2)ncn1 [Example 321, N^4-((1-amino-5,7-dimethylisoquinolin-6-yl)methyl)-N^6-(imidazo[1,2-a]pyridin-2-ylmethyl)pyrimidine-4,6-diamine]
1 to 10	Cc1ccn2cc(CNc3cc(NCc4c(C)cc5c(N)nccc5c4C)ncn3)nc2c1 [Example 322, N^4-((1-amino-5,7-dimethylisoquinolin-6-yl)methyl)-N^6-((7-methylimidazo[1,2-a]pyridin-2-yl)methyl)pyrimidine-4,6-diamine]
1 to 10	COc1ccnc2ccc(CNc3cc(NCc4c(C)cc5c(N)nccc5c4C)ncn3)cc12 [Example 323, N^4-((1-amino-5,7-dimethylisoquinolin-6-yl)methyl)-N^6-((4-methoxyquinolin-6-yl)methyl)pyrimidine-4,6-diamine]
1 to 10	Cc1cc2c(N)nccc2c(C)c1CNc1cc(NCc2ccc3nccc(C)c3c2)ncn1 [Example 324, N^4-((1-amino-5,7-dimethylisoquinolin-6-yl)methyl)-N^6-((4-methylquinolin-6-yl)methyl)pyrimidine-4,6-diamine]
1 to 10	Cc1cc2cc(CNc3cc(NCc4c(C)cc5c(N)nccc5c4C)ncn3)cnc2cc1C [Example 325, N^4-((1-amino-5,7-dimethylisoquinolin-6-yl)methyl)-N^6-((6,7-dimethylquinolin-3-yl)methyl)pyrimidine-4,6-diamine]
1 to 10	Cc1cc2c(N)nccc2c(C)c1CNc1cc(NCc2ccc3c(c2)OCCN3C)ncn1 [Example 326, N^4-((1-amino-5,7-dimethylisoquinolin-6-yl)methyl)-N^6-((4-methyl-3,4-dihydro-2H-benzo[b][1,4]oxazin-7-yl)methyl)pyrimidine-4,6-diamine, formic acid salt]
1 to 10	Cc1cc2c(N)nccc2c(C)c1CNc1cc(NCc2ccc3c(c2)N(C)C(=O)CO3)ncn1 [Example 327, 6-(((6-(((1-amino-5,7-dimethylisoquinolin-6-yl)methyl)amino)pyrimidin-4-yl)amino)methyl)-4-methyl-2H-benzo[b][1,4]oxazin-3(4H)-one, formic acid salt]
1 to 10	Cc1cc2c(N)nccc2c(C)c1CNc1cc(NCc2cc3c(Cl)cccc3cn2)ncn1 [Example 328, N^4-((1-amino-5,7-dimethylisoquinolin-6-yl)methyl)-N^6-((5-chloroisoquinolin-3-yl)methyl)pyrimidine-4,6-diamine, formic acid salt]
< 1	Cc1cc2c(N)nccc2c(C)c1CNc1cc(NCc2cn3cc(C(F)(F)F)ccc3n2)ncn1 [Example 329, N^4-((1-amino-5,7-dimethylisoquinolin-6-yl)methyl)-N^6-((6-(trifluoromethyl)imidazo[1,2-a]pyridin-2-yl)methyl)pyrimidine-4,6-diamine]
< 1	Cc1cc2c(N)nccc2c(C)c1CNc1cc(NCc2cn3c(C)c(Cl)ccc3n2)ncn1 [Example 330, N^4-((1-amino-5,7-dimethylisoquinolin-6-yl)methyl)-N^6-((6-chloro-5-methylimidazo[1,2-a]pyridin-2-yl)methyl)pyrimidine-4,6-diamine]
1 to 10	Cc1cc2c(N)nccc2c(C)c1CNc1cc(NCc2cn3cc(C#N)ccc3n2)ncn1 [Example 332, 2-(((6-(((1-amino-5,7-dimethylisoquinolin-6-yl)methyl)amino)pyrimidin-4-yl)amino)methyl)imidazo[1,2-a]pyridine-6-carbonitrile]
< 1	Cc1ccc2nc(CNc3cc(NCc4c(C)cc5c(N)nccc5c4C)ncn3)cn2c1 [Example 333, N^4-((1-amino-5,7-dimethylisoquinolin-6-yl)methyl)-N^6-((6-methylimidazo[1,2-a]pyridin-2-yl)methyl)pyrimidine-4,6-diamine]
< 1	Cc1cc2c(N)nccc2c(C)c1CNc1cc(NCc2ccc3ncc(F)cc3c2)ncn1 [Example 334, N^4-((1-amino-5,7-dimethylisoquinolin-6-yl)methyl)-N^6-((3-fluoroquinolin-6-yl)methyl)pyrimidine-4,6-diamine]
< 1	Cc1ccc2cc(CNc3cc(NCc4c(C)cc5c(N)nccc5c4C)ncn3)ccc2n1 [Example 335, N^4-((1-amino-5,7-dimethylisoquinolin-6-yl)methyl)-N^6-((2-methylquinolin-6-yl)methyl)pyrimidine-4,6-diamine]
< 1	Cc1cnc2ccc(CNc3cc(NCc4c(C)cc5c(N)nccc5c4C)ncn3)cc2c1 [Example 336, N^4-((1-amino-5,7-dimethylisoquinolin-6-yl)methyl)-N^6-((3-methylquinolin-6-yl)methyl)pyrimidine-4,6-diamine]
